{"source": "ChEMBL document CHEMBL6134863", "about": "“Novel Mitochondria-Targeted Asymmetric Heptamethine Cyanine Dye for Cancer Targeted NIR Imaging and Potent Necrosis and Senescence Induction with Prolonged Retention” (J Med Chem, 2025)", "key": {"[1]": {"assay": "Drug uptake in mouse 4T1 cells assessed as increase in green fluorescence intensity at 5 uM incubated for 30 mins by F-actin staining staining based microscopic analysis", "assay_type": "ADME, cell-based", "settings": "4t1, 0.5 h"}, "[2]": {"assay": "Drug accumulation in BALB/c mouse tumor xenografted with human NCI-H520 cells assessed as increase in fluorescence intensity at 0.5 mg/kg, iv measured at 96 hrs by imaging based analysis", "assay_type": "ADME, organism-based, Neoplasm", "settings": "in vivo"}, "[3]": {"assay": "Toxicity in BALB/c mouse implanted with mouse 4T1 cells assessed as kidney damage at 5 mg/kg, iv measured for 11 days by H and E staining based analysis", "assay_type": "organism-based", "settings": "in vivo, 264 h, time 11 day"}, "[4]": {"assay": "Acute toxicity in BALB/c mouse implanted with mouse 4T1 cells at 5 mg/kg, iv measured for 11 days", "assay_type": "organism-based", "settings": "in vivo, 264 h, time 11 day"}, "[5]": {"test_system": "Squamous carcinoma cell line", "assay": "Antitumor activity against patient-derived Squamous carcinoma cell line xenografted in BALB/c mouse assessed as tumor growth inhibition at 0.5 mg/kg, iv measured for 5 days", "assay_type": "functional, organism-based", "settings": "Homo sapiens, time 5.0 day"}, "[6]": {"assay": "Antioxidant activity of compound in presence of ClO-", "assay_type": "functional"}, "[7]": {"assay": "Drug accumulation in BALB/c mouse plasma implanted with mouse 4T1 cells assessed as increase in fluorescence intensity at 0.5 mg/kg, iv measured at 96 to 120 hrs by imaging based analysis", "assay_type": "ADME, organism-based", "settings": "in vivo, time 96-120 hrs"}, "[8]": {"assay": "Drug uptake in human NCI-H226 cells assessed as increase in green fluorescence intensity at 5 uM incubated for 30 mins by F-actin staining staining based microscopic analysis", "assay_type": "ADME, cell-based", "settings": "nci-h226, 0.5 h"}, "[9]": {"assay": "Antioxidant activity of compound in presence of CO3", "assay_type": "functional"}, "[10]": {"assay": "Antioxidant activity of compound in presence of NH4+", "assay_type": "functional"}, "[11]": {"assay": "Acute toxicity in BALB/c mouse implanted with mouse 4T1 cells assessed as change in body weight at 5 mg/kg, iv measured for 11 days", "assay_type": "organism-based", "settings": "in vivo, 264 h, time 11 day"}, "[12]": {"assay": "Distribution coefficient, logD of compound", "assay_type": "physicochemical", "settings": "octanol/water"}, "NCI-H226 [13]": {"test_system": "NCI-H226", "assay": "Induction of apoptosis in human NCI-H226 cells assessed as early apoptotic cells at 5 uM incubated for 48 hrs by Annexin V-FITC/PI staining based flow cytometry (reference value: 2.93 %)", "assay_type": "functional"}, "NCI-H226 [14]": {"test_system": "NCI-H226", "assay": "Induction of apoptosis in human NCI-H226 cells assessed as necrotic cells at 5 uM incubated for 48 hrs by Annexin V-FITC/PI staining based flow cytometry (reference value: 0.048 %)", "assay_type": "functional"}, "[15]": {"assay": "Antioxidant activity of compound in presence of Fe3+", "assay_type": "functional"}, "[16]": {"assay": "Antioxidant activity of compound in presence of ONOO-", "assay_type": "functional"}, "[17]": {"assay": "Stability of compound at 30 degreeC by thermogravimetric analysis", "assay_type": "physicochemical"}, "[18]": {"assay": "Drug accumulation in BALB/c mouse tumor implanted with mouse 4T1 cells assessed as increase in fluorescence intensity at 0.5 mg/kg, iv measured at 48 hrs by imaging based analysis", "assay_type": "ADME, organism-based, Neoplasm", "settings": "in vivo"}, "NCI-H250": {"test_system": "NCI-H250", "assay": "Antitumor activity against human […] cells xenografted in BALB/c mouse assessed as tumor growth inhibition 0.5 mg/kg, iv measured for 5 days", "assay_type": "functional, organism-based", "settings": "time 5.0 day"}, "[19]": {"assay": "Antioxidant activity of compound in presence of RSS", "assay_type": "functional"}, "NIH3T3": {"test_system": "NIH3T3", "assay": "Cytotoxicity against mouse 3T3 cells assessed as decrease in cell viability up to 5 uM incubated for 24 hrs by CCK-8 assay", "assay_type": "toxicity, cell-based", "settings": "nih3t3, 24 h"}, "[20]": {"assay": "Antioxidant activity of compound in presence of OH", "assay_type": "functional"}, "[21]": {"assay": "Drug uptake in human NCI-H226 cells assessed as increase in fluorescence intensity incubated for 24 hrs by fluorescence based microscopic analysis", "assay_type": "ADME, cell-based", "settings": "nci-h226, 24 h"}, "Mitochondrial membrane [22]": {"test_system": "Mitochondrial membrane", "assay": "Induction of mitochondrial membrane potential loss in human NCI-H226 cells", "assay_type": "cell membranes"}, "[23]": {"assay": "Photostability of compound in DMSO-H2O incubated for 1 hr irradiated with deuterium lamp by absorbance based analysis", "assay_type": "physicochemical", "settings": "read-out: Stability"}, "NCI-H226 [24]": {"test_system": "NCI-H226", "assay": "Induction of ROS production in human NCI-H226 cells at 5 uM incubated for 24 hrs by flow cytometry analysis", "assay_type": "functional, cell-based"}, "[25]": {"assay": "Cytotoxicity against human Primary lung fibroblast assessed as decrease in cell viability up to 5 uM incubated for 24 hrs by CCK-8 assay", "assay_type": "toxicity, cell-based"}, "NCI-H226 [26]": {"test_system": "NCI-H226", "assay": "Induction of DNA damage in human NCI-H226 cells assessed as increase in gamma-H2AX level at 5 uM incubated for 24 hrs by immunofluorescence analysis", "assay_type": "functional, cell-based"}, "[27]": {"assay": "Stability of compound in DMSO-H2O incubated for 150 mins by absorbance based analysis", "assay_type": "physicochemical", "settings": "2.5 h"}, "NCI-H226 [28]": {"test_system": "NCI-H226", "assay": "Cytotoxicity against human NCI-H226 assessed as decrease in cell viability up to 10 uM incubated for 24 hrs by CCK-8 assay", "assay_type": "functional, cell-based"}, "[29]": {"assay": "Antioxidant activity of compound in presence of HSO3-", "assay_type": "functional"}, "[30]": {"assay": "Partition coefficient, logP of compound", "assay_type": "physicochemical", "settings": "octanol/water"}, "[31]": {"assay": "Antioxidant activity of compound in presence of H2O2-", "assay_type": "functional"}, "[32]": {"assay": "Toxicity in BALB/c mouse implanted with mouse 4T1 cells assessed as liver damage at 5 mg/kg, iv measured for 11 days by H and E staining based analysis", "assay_type": "organism-based", "settings": "in vivo, 264 h, time 11 day"}, "[33]": {"assay": "Antioxidant activity of compound in presence of L-Cysteine", "assay_type": "functional"}, "Mitochondrial membrane [34]": {"test_system": "Mitochondrial membrane", "assay": "Induction of mitochondrial membrane potential loss in human NCI-H226 cells at 2 uM incubated for 4 hrs by TMRE staining based fluorescence microscopic analysis", "assay_type": "cell membranes"}, "[35]": {"assay": "Cytotoxicity against human Primary lung fibroblast assessed as decrease in cell viability up to 10 uM incubated for 24 hrs by CCK-8 assay", "assay_type": "toxicity, cell-based"}, "4T1": {"test_system": "4T1", "assay": "Antitumor activity against mouse 4T1 cells implanted in BALB/c mouse assessed as tumor growth inhibition 5 mg/kg, iv measured for 11 days", "assay_type": "functional", "settings": "4T1, 264 h, time 11 day, read-out: TGI"}, "[36]": {"assay": "Toxicity in BALB/c mouse implanted with mouse 4T1 cells assessed as heart damage at 5 mg/kg, iv measured for 11 days by H and E staining based analysis", "assay_type": "organism-based", "settings": "in vivo, 264 h, time 11 day"}, "[37]": {"assay": "Antioxidant activity of compound in presence of TBHP", "assay_type": "functional"}, "[38]": {"assay": "Solubility of compound in DMSO-H2O", "assay_type": "physicochemical"}, "[39]": {"assay": "Antioxidant activity of compound in presence of SO4", "assay_type": "functional"}, "[40]": {"assay": "Antioxidant activity of compound in presence of ROS", "assay_type": "functional"}, "[41]": {"assay": "Drug accumulation in tumor to muscle of BALB/c mouse implanted with mouse 4T1 cells at 0.5 mg/kg, iv measured at 4 to 168 hrs", "assay_type": "ADME, organism-based", "settings": "in vivo, time 4-168 hrs"}, "[42]": {"assay": "Antioxidant activity of compound in presence of HCHO", "assay_type": "functional"}, "[43]": {"assay": "Antioxidant activity of compound in presence of NO2", "assay_type": "functional"}, "[44]": {"assay": "Drug uptake in human NCI-H226 cells assessed as increase in red fluorescence intensity at 5 uM incubated for 30 mins by CY7 staining based microscopic analysis", "assay_type": "ADME, cell-based", "settings": "nci-h226, 0.5 h"}, "[45]": {"assay": "Toxicity in BALB/c mouse implanted with mouse 4T1 cells assessed as survival rate at 5 mg/kg, iv measured for 11 days", "assay_type": "organism-based", "settings": "in vivo, time 11 day"}, "[46]": {"assay": "Antioxidant activity of compound in presence of RNS", "assay_type": "functional"}}, "note": "Calls of active or inactive are those of the source. The calls are words filed in the database; no cut-off is given here."}
{"smiles": "CCCN1/C(=C/C=C2\\CCCC(/C=C/C3=[N+](Cc4ccc(C(=O)O)cc4)c4ccccc4C3(C)C)=C2Cl)C(C)(C)c2ccccc21.[Br-]", "values": [{"measurement": "Drug uptake", "setting": "[1]", "result": "Active"}, {"measurement": "Drug uptake", "setting": "[2]", "result": "Active"}, {"measurement": "Activity", "setting": "[3]", "result": "Non-toxic"}, {"measurement": "Activity", "setting": "[4]", "result": "Non-toxic"}, {"measurement": "TGI", "setting": "[5]", "result": "Active"}, {"measurement": "Activity", "setting": "[6]", "result": "Active"}, {"measurement": "Drug uptake", "setting": "[7]", "result": "Active"}, {"measurement": "Drug uptake", "setting": "[8]", "result": "Active"}, {"measurement": "Activity", "setting": "[9]", "result": "Active"}, {"measurement": "Activity", "setting": "[10]", "result": "Active"}, {"measurement": "Activity", "setting": "[11]", "result": "Non-toxic"}, {"measurement": "logD", "setting": "[12]", "result": 4.49}, {"measurement": "Activity", "setting": "NCI-H226 [13]", "result": 0.82, "unit": "%"}, {"measurement": "Activity", "setting": "NCI-H226 [14]", "result": 58.9, "unit": "%"}, {"measurement": "Activity", "setting": "[15]", "result": "Active"}, {"measurement": "Activity", "setting": "[16]", "result": "Active"}, {"measurement": "Stability", "setting": "[17]", "result": "Stable"}, {"measurement": "Drug uptake", "setting": "[18]", "result": "Active"}, {"measurement": "TGI", "setting": "NCI-H250", "result": "Active"}, {"measurement": "Activity", "setting": "[19]", "result": "Active"}, {"measurement": "Activity", "setting": "NIH3T3", "result": "> 80", "unit": "%"}, {"measurement": "Activity", "setting": "[20]", "result": "Active"}, {"measurement": "Drug uptake", "setting": "[21]", "result": "Active"}, {"measurement": "Activity", "setting": "Mitochondrial membrane [22]", "result": "Active"}, {"measurement": "remaining at 1 h", "setting": "[23]", "result": 95.8, "unit": "%"}, {"measurement": "Activity", "setting": "NCI-H226 [24]", "result": "Active"}, {"measurement": "Activity", "setting": "[25]", "result": "Non-toxic"}, {"measurement": "Activity", "setting": "NCI-H226 [26]", "result": "Active"}, {"measurement": "Stability", "setting": "[27]", "result": "Stable"}, {"measurement": "Activity", "setting": "NCI-H226 [28]", "result": "Active"}, {"measurement": "Activity", "setting": "[29]", "result": "Active"}, {"measurement": "logP", "setting": "[30]", "result": 6.09}, {"measurement": "Activity", "setting": "[31]", "result": "Active"}, {"measurement": "Activity", "setting": "[32]", "result": "Non-toxic"}, {"measurement": "Activity", "setting": "[33]", "result": "Active"}, {"measurement": "Activity", "setting": "Mitochondrial membrane [34]", "result": "Active"}, {"measurement": "Activity", "setting": "[35]", "result": "Non-toxic"}, {"measurement": "inhibition in vivo at 5 mg/kg", "setting": "4T1", "result": "~60", "unit": "%"}, {"measurement": "Activity", "setting": "[36]", "result": "Non-toxic"}, {"measurement": "Activity", "setting": "[37]", "result": "Active"}, {"measurement": "solubility", "setting": "[38]", "result": 170, "unit": "µg/mL"}, {"measurement": "Activity", "setting": "[39]", "result": "Active"}, {"measurement": "Activity", "setting": "[40]", "result": "Active"}, {"measurement": "Drug uptake", "setting": "[41]", "result": "Active"}, {"measurement": "Activity", "setting": "[42]", "result": "Active"}, {"measurement": "Activity", "setting": "[43]", "result": "Active"}, {"measurement": "Drug uptake", "setting": "[44]", "result": "Active"}, {"measurement": "survival at 264 h", "setting": "[45]", "result": 100, "unit": "%"}, {"measurement": "Activity", "setting": "[46]", "result": "Active"}]}
